Test results from patent publication US6982348B2, “Aminoethanol derivatives” (Takeda Pharmaceutical Company Limited, priority 2001, dated 2006).

melting point [°C]	SMILES
174 to 175	O=C(N[C@H](Cc1ccc(C(F)(F)F)cc1)[C@@H](O)c1ccc(F)cc1)c1ccc2ccccc2c1 (racemic) [Example 63, N-((1RS,2SR)-2-(4-fluorophenyl)-2-hydroxy-1-((4-(trifluoromethyl)phenyl)methyl)ethyl)-2-naphthalenecarboxamide]
170 to 171	COCc1ccc(C(=O)N[C@H](Cc2ccc(C(F)(F)F)cc2)[C@@H](O)c2ccc(F)cc2)c2ccccc12 (racemic) [Example 65, N-((1RS,2SR)-2-(4-fluorophenyl)-2-hydroxy-1-((4-(trifluoromethyl)phenyl)methyl)ethyl)-4-((methyloxy)methyl)-1-naphthalenecarboxamide]
227 to 228	O=C(N[C@H](Cc1ccc(C(F)(F)F)cc1)[C@@H](O)c1ccc(F)cc1)c1cccc2cc3ccccc3cc12 (racemic) [Example 66, N-((1RS,2SR)-2-(4-fluorophenyl)-2-hydroxy-1-((4-(trifluoromethyl)phenyl)methyl)ethyl)-1-anthracenecarboxamide]
193 to 194	O=C(N[C@H](Cc1ccc(C(F)(F)F)cc1)[C@@H](O)c1ccc(F)cc1)c1ccccc1 (racemic) [Example 68, N-[(1RS,2SR)-2-(4-fluorophenyl)-2-hydroxy-1-[4-(trifluoromethyl)benzyl]ethyl]benzamide]
173 to 174	O=C(Cc1ccccc1)N[C@H](Cc1ccc(C(F)(F)F)cc1)[C@@H](O)c1ccc(F)cc1 (racemic) [Example 69, N-((1RS,2SR)-2-(4-fluorophenyl)-2-hydroxy-1-((4-(trifluoromethyl)phenyl)methyl)ethyl)-2-phenylacetamide]
162 to 163	O=C(N[C@H](Cc1ccc(C(F)(F)F)cc1)[C@@H](O)c1ccc(F)cc1)C(F)(F)F (racemic) [Example 70, N-[(1RS,2SR)-2-(4-fluorophenyl)-2-hydroxy-1-[4-(trifluoromethyl)benzyl]ethyl]-2,2,2-trifluoroacetamide]
180 to 181	O=C(N[C@H](Cc1ccc(C(F)(F)F)cc1)[C@@H](O)c1ccc(F)cc1)c1ccc2c(c1)OCO2 (racemic) [Example 72, N-((1RS,2SR)-2-(4-fluorophenyl)-2-hydroxy-1-((4-(trifluoromethyl)phenyl)methyl)ethyl)-1,3-benzodioxole-5-carboxamide]
134 to 136	Cc1oc(C(C)C)c(C(=O)N[C@H](Cc2ccc(C(F)(F)F)cc2)[C@@H](O)c2ccc(F)cc2)c1-c1ccc(F)cc1 (racemic) [Example 73, 4-(4-fluorophenyl)-N-[(1RS,2SR)-2-(4-fluorophenyl)-2-hydroxy-1-[4-(trifluoromethyl)benzyl]ethyl]-5-methyl-2-(1-methylethyl)furan-3-carboxamide]
165 to 166	O=C(N[C@H](Cc1ccc(C(F)(F)F)cc1)[C@@H](O)c1ccc(F)cc1)c1cccc(-c2ccccc2)c1 (racemic) [Example 74, N-((1RS,2SR)-2-(4-fluorophenyl)-2-hydroxy-1-((4-(trifluoromethyl)phenyl)methyl)ethyl)[1,1′-biphenyl]-3-carboxamide]
169 to 170	CN(C)c1ccc(C(=O)N[C@H](Cc2ccc(C(F)(F)F)cc2)[C@@H](O)c2ccc(F)cc2)c2ccccc12 (racemic) [Example 75, 4-(dimethylamino)-N-((1RS,2SR)-2-(4-fluorophenyl)-2-hydroxy-1-((4-(trifluoromethyl)phenyl)methyl)ethyl)-1-naphthalenecarboxamide]
220 to 221	O=C(N[C@H](Cc1ccc(C(F)(F)F)cc1)[C@@H](O)c1ccc(F)cc1)c1cc(Cl)cc2ccccc12 (racemic) [Example 76, 3-chloro-N-[(1RS,2SR)-2-(4-fluorophenyl)-2-hydroxy-1-[4-(trifluoromethyl)benzyl]ethyl]naphthalene-1-carboxamide]
121 to 122	O=C(N[C@H](Cc1ccc(C(F)(F)F)cc1)[C@@H](O)c1ccc(F)cc1)c1cccc2c1OCC2 (racemic) [Example 77, N-((1RS,2SR)-2-(4-fluorophenyl)-2-hydroxy-1-((4-(trifluoromethyl)phenyl)methyl)ethyl)-2,3-dihydro-1-benzofuran-7-carboxamide]
151 to 152	O=C(CBr)N[C@H](Cc1ccc(C(F)(F)F)cc1)[C@@H](O)c1ccc(F)cc1 (racemic) [Example 78, 2-bromo-N-((1RS,2SR)-2-(4-fluorophenyl)-2-hydroxy-1-((4-(trifluoromethyl)phenyl)methyl)ethyl)acetamide]
171 to 172	CCCCc1ccc(C(=O)N[C@H](Cc2ccc(C(F)(F)F)cc2)[C@@H](O)c2ccc(F)cc2)cc1 (racemic) [Example 79, 4-butyl-N-((1RS,2SR)-2-(4-fluorophenyl)-2-hydroxy-1-((4-(trifluoromethyl)phenyl)methyl)ethyl)benzamide]
83 to 84	O=C(N[C@H](Cc1ccc(C(F)(F)F)cc1)[C@@H](O)c1ccc(F)cc1)c1cccc2cccnc12 (racemic) [Example 80, N-((1RS,2SR)-2-(4-fluorophenyl)-2-hydroxy-1-((4-(trifluoromethyl)phenyl)methyl)ethyl)-8-quinolinecarboxamide]
228 to 229	O=C(N[C@H](Cc1ccc(C(F)(F)F)cc1)[C@@H](O)c1ccc(F)cc1)c1ccc(C(F)(F)F)cc1 (racemic) [Example 81, N-((1RS,2SR)-2-(4-fluorophenyl)-2-hydroxy-1-((4-(trifluoromethyl)phenyl)methyl)ethyl)-4-(trifluoromethyl)benzamide]
186 to 187	O=C(Cc1cccc2ccccc12)N[C@H](Cc1ccc(C(F)(F)F)cc1)[C@@H](O)c1ccc(F)cc1 (racemic) [Example 82, N-((1RS,2SR)-2-(4-fluorophenyl)-2-hydroxy-1-((4-(trifluoromethyl)phenyl)methyl)ethyl)-2-(1-naphthalenyl)acetamide]
157 to 158	CCOc1ccc2ccccc2c1C(=O)N[C@H](Cc1ccc(C(F)(F)F)cc1)[C@@H](O)c1ccc(F)cc1 (racemic) [Example 83, 2-(ethyloxy)-N-((1RS,2SR)-2-(4-fluorophenyl)-2-hydroxy-1-((4-(trifluoromethyl)phenyl)methyl)ethyl)-1-naphthalenecarboxamide]
251 to 252	O=C(N[C@H](Cc1ccc(C(F)(F)F)cc1)[C@@H](O)c1ccc(F)cc1)c1c2ccccc2cc2ccccc12 (racemic) [Example 84, N-((1RS,2SR)-2-(4-fluorophenyl)-2-hydroxy-1-((4-(trifluoromethyl)phenyl)methyl)ethyl)-9-anthracenecarboxamide]
185 to 186	O=C(N[C@H](Cc1ccc(C(F)(F)F)cc1)[C@@H](O)c1ccc(F)cc1)c1cccc2c1C(=O)c1ccccc1-2 (racemic) [Example 85, N-((1RS,2SR)-2-(4-fluorophenyl)-2-hydroxy-1-((4-(trifluoromethyl)phenyl)methyl)ethyl)-9-oxo-9H-fluorene-1-carboxamide]
150 to 151	O=C(N[C@H](Cc1ccc(C(F)(F)F)cc1)[C@@H](O)c1ccc(F)cc1)c1cc(C(F)(F)F)cc(C(F)(F)F)c1 (racemic) [Example 86, N-((1RS,2SR)-2-(4-fluorophenyl)-2-hydroxy-1-((4-(trifluoromethyl)phenyl)methyl)ethyl)-3,5-bis(trifluoromethyl)benzamide]
191 to 192	O=C(N[C@H](Cc1ccc(C(F)(F)F)cc1)[C@@H](O)c1ccc(F)cc1)c1cccc2cccc(Br)c12 (racemic) [Example 87, 8-bromo-N-((1RS,2SR)-2-(4-fluorophenyl)-2-hydroxy-1-((4-(trifluoromethyl)phenyl)methyl)ethyl)-1-naphthalenecarboxamide]
156 to 157	O=C(N[C@H](Cc1ccc(C(F)(F)F)cc1)[C@@H](O)c1ccc(F)cc1)c1ccc(C(=O)c2ccc(F)cc2)cc1 (racemic) [Example 88, 4-(4-fluorobenzoyl)-N-[(1RS,2SR)-2-(4-fluorophenyl)-2-hydroxy-1-[4-(trifluoromethyl)benzyl]ethyl]benzenecarboxamide]
193 to 194	O=C(N[C@H](Cc1ccc(C(F)(F)F)cc1)[C@@H](O)c1ccc(F)cc1)c1ccc(/C=C\c2ccc(Cl)cc2)cc1 (racemic) [Example 89, 4-[(Z)-2-(4-chlorophenyl)ethenyl]-N-[(1RS,2SR)-2-(4-fluorophenyl)-2-hydroxy-1-[4-(trifluoromethyl)benzyl]ethyl]benzenecarboxamide]
188 to 189	O=C(N[C@H](Cc1ccc(C(F)(F)F)cc1)[C@@H](O)c1ccc(F)cc1)c1ccc(Oc2ccc(Cl)cc2)cc1 (racemic) [Example 90, 4-(4-chlorophenoxy)-N-[(1RS,2SR)-2-(4-fluorophenyl)-2-hydroxy-1-[4-(trifluoromethyl)benzyl]ethyl]benzenecarboxamide]
204 to 206	COCc1oc(-c2ccccc2)c(C(=O)N[C@H](Cc2ccc(C(F)(F)F)cc2)[C@@H](O)c2ccc(F)cc2)c1-c1ccc(F)cc1 (racemic) [Example 91, 4-(4-fluorophenyl)-N-[(1RS,2SR)-2-(4-fluorophenyl)-2-hydroxy-1-[4-(trifluoromethyl)benzyl]ethyl]-5-[(methoxy)methyl]-2-phenylfuran-3-carboxamide]
211 to 212	O=C(N[C@H](Cc1ccc(C(F)(F)F)cc1)[C@@H](O)c1ccc(F)cc1)c1ccc(CCc2ccc(Cl)cc2)cc1 (racemic) [Example 92, 4-[2-(4-chlorophenyl)ethyl]-N-[(1RS,2SR)-2-(4-fluorophenyl)-2-hydroxy-1-[4-(trifluoromethyl)benzyl]ethyl]benzenecarboxamide]
162 to 166	O=C(N[C@H](Cc1ccc(C(F)(F)F)cc1)[C@@H](O)c1ccc(F)cc1)c1ccc([C@@H]2O[C@@H]2c2ccc(Cl)cc2)cc1 (racemic) [Example 93, 4-[cis-3-(4-chlorophenyl)oxiran-2-yl]-N-[(1RS,2SR)-2-(4-fluorophenyl)-2-hydroxy-1-[4-(trifluoromethyl)benzyl]ethyl]benzenecarboxamide]
